Experiments:
Hela = experiment: MTT antiproliferative assay, HeLa; format: cell-based, human; settings: 72 h incubation, mean ± SD of three independent experiments
Description: Table 2 IC50 (μM) ± SD of tested compounds in different cell lines after 72 h incubation. | column: Cell Line, IC50 (µM) ± SD / Hela

Jurkat = experiment: MTT antiproliferative assay, Jurkat; format: cell-based, human; settings: 72 h incubation, mean ± SD of three independent experiments
MCF-10A = experiment: MTT cytotoxicity assay, non-cancer MCF-10A; format: cell-based, human; settings: 72 h incubation, mean ± SD of three independent experiments
MDA-MB-231 = experiment: MTT antiproliferative assay, MDA-MB-231; format: cell-based, human; settings: MDA-MB-231, 72 h incubation, mean ± SD of three independent experiments
breast cancer cells = settings: flow cytometry, Western blot, fluorescence microscopy; cited from earlier work
[1] = ABTS radical scavenging activity; settings: sample 1 mM, 30 min, gallic acid equivalents, mean (±SD), triplicate
Description: (§1) Table 3 Antioxidant activity.

[2] = Ferric reducing antioxidant power (FRAP); settings: sample 1 mM, 30 min, gallic acid equivalents, mean (±SD), triplicate
Description: as §1

[3] = DPPH radical scavenging activity; settings: sample 1 mM, 30 min, gallic acid equivalents, mean (±SD), triplicate
HCT116 = experiment: MTT antiproliferative assay, HCT116; format: cell-based, human; settings: HCT116, 72 h incubation, mean ± SD of three independent experiments
MCF-7 = experiment: MTT antiproliferative assay, MCF-7; format: cell-based, human; settings: MCF-7, 72 h incubation, mean ± SD of three independent experiments
Bj-5ta = experiment: MTT cytotoxicity assay, non-cancer Bj-5ta; format: cell-based, human; settings: 72 h incubation, mean ± SD of three independent experiments; for IC50: Homo sapiens
[4] = set-up: method as in Lagu et al. 19; settings: compared to standard drugs; ref Lagu et al. 19; cited from earlier work
[5] = test system: normal human liver cell line (L02); set-up: method as in Lagu et al. 19; settings: ref Lagu et al. 19; cited from earlier work

With `CCCOc1[nH]c2ccccc2c1/C=C/C(=O)c1ccccc1F` [11f, (2E)-1-(2″-Fluorophenyl)-3-(2′-propoxy-1′H-indol-3′-yl)prop-2-en-1-one] the IC50 (Hela) was 45.3 ± 0.7 µM, the IC50 (Jurkat) was 37.7 ± 1.1 µM and the IC50 (MCF-10A) was greater than 100 µM. For the same compound, the “IC50 (µM) ± SD, MCF-10A” value (MCF-10A) was “minimal effect”, the IC50 (MDA-MB-231) was 34 ± 3 µM and the “mode of cell death” value (breast cancer cells) was “induce cell cycle arrest in the G2/M phase and apoptosis”. For the same compound, the ABTS [1] was 175.1 (±10.4) µmol GAE/mmol, the FRAP [2] was 183.5 (±0.9) µmol GAE/mmol and the DPPH [3] was 227.3 (±11.0) µmol GAE/mmol. The IC50 (HCT116) was 34.4 ± 1.1 µM and the IC50 (MCF-7) was 37.3 ± 1.5 µM.
Compound `O=C(/C=C/c1c[nH]c2ccccc12)c1ccc(C(F)(F)F)cc1` [12a, (2E)-3-(1H-indol-3-yl)-1-(4-trifluoromethylphenyl) prop-2-en-1-one] has an IC50 (Hela; Homo sapiens, HeLa, 72 h) of 68.1 ± 3.3 µM, an IC50 (Jurkat; Homo sapiens) greater than 100 µM and an IC50 (MCF-10A; Homo sapiens, MCF-10A, 72 h) greater than 100 µM. For the same compound, the IC50 (MDA-MB-231; Homo sapiens) was greater than 100 µM, the IC50 (Bj-5ta) was greater than 100 µM and the IC50 (HCT116; Homo sapiens, HCT-116, 72 h) was 59.1 ± 1.1 µM. For the same compound, the antimicrobial activity [4] was “greatest antimicrobial activity”, the IC50 (MCF-7; Homo sapiens, MCF7, 72 h) was 43.4 µM and the IC50 (MCF-7) was 43.3 ± 0.6 µM. For the same compound, the “cytotoxicity on normal human liver cell line (L02)” value [5] was “without showing cytotoxicity” and the melting point was 195 to 197 °C.
`Cn1cc(/C=C/C(=O)c2ccccc2O)c2ccccc21` [13b, (2E)-1-(2-hydroxyphenyl)-3-(1-methyl-1H-indol-3-yl)prop-2-en-1-one] gave an IC50 (Hela; Homo sapiens, HeLa, 72 h) of 42.8 ± 2.5 µM, an IC50 (Jurkat; Homo sapiens) greater than 100 µM and an IC50 (MCF-10A; Homo sapiens, MCF-10A, 72 h) greater than 100 µM. For the same compound, the IC50 (MDA-MB-231; Homo sapiens) was 82 ± 3.2 µM, the ABTS [1] was 116.8 (±5.8) µmol GAE/mmol and the IC50 (Bj-5ta) was greater than 100 µM. For the same compound, the FRAP [2] was 41.2 (±0.7) µmol GAE/mmol, the DPPH [3] was 7.6 (±3.8) µmol GAE/mmol and the IC50 (HCT116; Homo sapiens, HCT-116, 72 h) was 34.7 ± 0.2 µM. It also gave an IC50 (MCF-7; Homo sapiens, MCF7, 72 h) of 29.7 ± 2.3 µM and a melting point of 205 to 207 °C.
For `COn1cc(/C=C/C(=O)c2ccccc2O)c2ccccc21` [13c, (2E)-1-(2-hydroxyphenyl)-3-(1-methoxy-1H-indol-3-yl)prop-2-en-1-one], the IC50 (Hela; Homo sapiens, HeLa, 72 h) was 73.9 ± 3.4 µM, the IC50 (Jurkat; Homo sapiens) was 42 ± 1.8 µM and the IC50 (MCF-10A; Homo sapiens, MCF-10A, 72 h) was greater than 100 µM. For the same compound, the IC50 (MDA-MB-231; Homo sapiens) was greater than 100 µM, the ABTS [1] was 214.6 (±28.4) µmol GAE/mmol and the IC50 (Bj-5ta) was greater than 100 µM. The FRAP [2] was 43.4 (±1.8) µmol GAE/mmol, the DPPH [3] was 30.3 (±15.4) µmol GAE/mmol and the IC50 (HCT116; Homo sapiens, HCT-116, 72 h) was 54 ± 2.2 µM. The IC50 (MCF-7; Homo sapiens, MCF7, 72 h) was 53.4 ± 2.5 µM and the melting point was 139 to 140 °C.
`O=C(/C=C/c1c[nH]c2ccccc12)c1ccc(O)cc1` [14a, (2E)-1-(4-hydroxyphenyl)-3-(1H-indol-3-yl)prop-2-en-1-one] showed an IC50 (Hela; Homo sapiens, HeLa, 72 h) of 39.9 ± 2.6 µM, an IC50 (Jurkat; Homo sapiens) of 33.9 ± 2.5 µM and an IC50 (MCF-10A; Homo sapiens, MCF-10A, 72 h) of 51.5 ± 1.7 µM. For the same compound, the IC50 (MDA-MB-231; Homo sapiens) was 66 ± 2.5 µM, the ABTS [1] was 194.8 (±21.4) µmol GAE/mmol and the IC50 (Bj-5ta) was 61 ± 0.6 µM. The FRAP [2] was 105.5 (±3.4) µmol GAE/mmol, the DPPH [3] was 12.3 (±2.3) µmol GAE/mmol and the IC50 (HCT116; Homo sapiens, HCT-116, 72 h) was 36.8 ± 0.5 µM. For the same compound, the IC50 (MCF-7; Homo sapiens, MCF7, 72 h) was 42.2 ± 0.7 µM and the melting point was 218 °C.
Work on `Cn1cc(/C=C/C(=O)c2ccc(O)cc2)c2ccccc21` [14b, (2E)-1-(4-hydroxyphenyl)-3-(1-methyl-1H-indol-3-yl)prop-2-en-1-one] yielded an IC50 (Hela; Homo sapiens, HeLa, 72 h) of 93 ± 2.6 µM, an IC50 (Jurkat; Homo sapiens) greater than 100 µM and an IC50 (MCF-10A; Homo sapiens, MCF-10A, 72 h) of 54 ± 2.1 µM. For the same compound, the IC50 (MDA-MB-231; Homo sapiens) was greater than 100 µM, the ABTS [1] was 84.6 (±2.7) µmol GAE/mmol and the IC50 (Bj-5ta) was greater than 100 µM. The FRAP [2] was 114.3 (±4.2) µmol GAE/mmol, the DPPH [3] was 7.3 (±3.1) µmol GAE/mmol and the IC50 (HCT116; Homo sapiens, HCT-116, 72 h) was 49.3 ± 1.3 µM. For the same compound, the IC50 (MCF-7; Homo sapiens, MCF7, 72 h) was 82.3 ± 1.8 µM and the melting point was 244 °C.
`COn1cc(/C=C/C(=O)c2ccc(O)cc2)c2ccccc21` [14c, (2E)-1-(4-hydroxyphenyl)-3-(1-methoxy-1H-indol-3-yl)prop-2-en-1-one] showed an IC50 (Hela; Homo sapiens, HeLa, 72 h) of 34.6 ± 0.3 µM, an IC50 (Jurkat; Homo sapiens) of 7.3 ± 0.1 µM and an IC50 (MCF-10A; Homo sapiens, MCF-10A, 72 h) of 59 ± 0.2 µM. For the same compound, the IC50 (MDA-MB-231; Homo sapiens) was 82.2 ± 3.1 µM, the ABTS [1] was 75.9 (±5.3) µmol GAE/mmol and the IC50 (Bj-5ta) was 76.4 ± 1.7 µM. For the same compound, the FRAP [2] was 42.0 (±2.0) µmol GAE/mmol, the DPPH [3] was 21.1 (±5.8) µmol GAE/mmol and the IC50 (HCT116; Homo sapiens, HCT-116, 72 h) was 34.5 ± 0.7 µM. The IC50 (MCF-7; Homo sapiens, MCF7, 72 h) was 52.7 ± 2.6 µM and the melting point was 182 to 184 °C.
For `COn1cc(C(=O)/C=C/c2ccc(O)c(O)c2)c2ccccc21` [18c, (2E)-3-(3,4-dihydroxyphenyl)-1-(1-methoxy-1H-indol-3-yl)prop-2-en-1-one], the IC50 (Hela; Homo sapiens, HeLa, 72 h) was greater than 100 µM, the IC50 (Jurkat; Homo sapiens) was 8 ± 1.4 µM and the “IC50 (µM) ± SD, MCF-10A” value (MCF-10A) was “no toxicity”. For the same compound, the IC50 (MCF-10A; Homo sapiens, MCF-10A, 72 h) was greater than 100 µM, the IC50 (MDA-MB-231; Homo sapiens) was greater than 100 µM and the ABTS [1] was 298.1 (±21.0) µmol GAE/mmol. The “IC50 (µM) ± SD, Bj-5ta” value (Bj-5ta) was “no toxicity”, the IC50 (Bj-5ta) was greater than 100 µM and the FRAP [2] was 432.0 (±21.4) µmol GAE/mmol. For the same compound, the DPPH [3] was 551.1 (±14.9) µmol GAE/mmol, the IC50 (HCT116) was 18.2 ± 2.9 µM and the IC50 (HCT116; Homo sapiens, HCT-116, 72 h) was 18.5 µM. For the same compound, the IC50 (MCF-7; Homo sapiens, MCF7, 72 h) was greater than 100 µM and the melting point was 206 to 209 °C.
Compound `COc1cc(/C=C/C(=O)c2c[nH]c3ccccc23)ccc1O` [19a, (2E)-3-(4-hydroxy-3-methoxyphenyl)-1-(1H-indol-3-yl)prop-2-en-1-one] has an IC50 (Hela) of 41.4 ± 2.5 µM, an IC50 (Hela; Homo sapiens, HeLa, 72 h) of 25.5 ± 1.6 µM and an IC50 (Jurkat; Homo sapiens) of 34 ± 0.3 µM. The IC50 (MCF-10A) was 40.2 ± 1.2 µM, the IC50 (MCF-10A; Homo sapiens, MCF-10A, 72 h) was 24.7 ± 2.8 µM and the IC50 (MDA-MB-231; Homo sapiens) was 45.3 ± 0.5 µM. For the same compound, the ABTS [1] was 564.7 (±74.5) µmol GAE/mmol, the IC50 (Bj-5ta) was 66.6 ± 0.1 µM and the FRAP [2] was 307.2 (±11.9) µmol GAE/mmol. For the same compound, the DPPH [3] was 223.5 (±11.2) µmol GAE/mmol, the IC50 (HCT116) was 35.3 ± 0.6 µM and the IC50 (HCT116; Homo sapiens, HCT-116, 72 h) was 62.7 ± 2.9 µM. It also gave an IC50 (MCF-7; Homo sapiens, MCF7, 72 h) of 43.1 ± 1.6 µM and a melting point of 200 to 203 °C.

From PMC10535268, “Design, Synthesis, and Evaluation of Novel Indole Hybrid Chalcones and Their Antiproliferative and Antioxidant Activity” (Molecules, 2023)
